Values after ≈ are worked out from the molar mass of the structure shown.
Columns and labels:
Type in all cases: cell-based
[1] = tested on: 2.2.15 cells; test: Drug TC50 by MTT detection; conditions: Reed-Muench
Description: 2.2.15 cells (all cells were purchased from Vertex Pharmaceutical Co., USA) in exponential growth phase were inoculated on 96-well culture plate, 2×10^5 cells/well, added with culture media containing PFA diluted in different concentration rates, 3 wells for each diluted concentration, placed in 37° C. CO2—containing incubator and cultivated for 48 h; the supernatant was discarded, 100 μl of MTT (0.5 mg/ml) in culture medium was added, cultivation was continuously performed at 37° C. for 4 h; each well was added to 100 μl of 50% DMF-20% SDS destaining solution, stood at 37° C. overnight; ELISA was used to measure optical density at wavelength of 570 nm (0D570).
In each experiment, 3 cell control wells and 3 blank controls well were set, the results were used in formula, (cell control OD570-drug-medicated cell OD570)/cell control OD570, to calculate cell death rate (%), and Reed-Muench method was used to calculate half toxic concentration TC50.

[2] = tested on: Hsc70; test: Detection of Hsc70 gene expression level upon action of compound on 2.2.15 cells (real-time fluorescent quantified PCR); design: Hsc70 mRNA / Hsc70 down-regulation rate (%): unit not given here; conditions: for Hsc70 inhibition rate (down-regulation of Hsc70 expression activity, expressed in relative OMT ratio): 2.2.15 cells, relative to OMT (= 1); for Hsc70 down-regulation rate (%): single value, concentration not given, values coincide with Table 1 relative OMT ratios
How it was run: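 2.2.15 cells grown 24 hr in 10% FCS medium, then exposed to compounds (20 mg/ml MEM stock diluted in medium) for 12, 24 or 36 hr; 400 μg/ml OMTR as control. Hsc70 mRNA and HBV DNA changes measured by real-time fluorescent quantitative PCR.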

[3] = tested on: HCV; test: Inhibition effects of compounds on HCV in Huh7.5 cultured cell after HCV infection; conditions: for EC50 (half effective concentration): virus not given, stands beside HCV inhibition rate
Description: 1×10^5/ml Huh7.5 cells (purchased from Vertex Pharmaceutical Co., USA) were inoculated in an amount of 0.1 ml on 96-well culture plate, placed in an incubator with 37° C., 5% CO2 content and saturation humidity, and cultured for 24 h, HCV virus in 45 IU/cell was used to infect Huh7.5, different drug solutions (DM122) formulated with culture medium were added, and cell control and HCV infection control were set. Cultivation was continuously performed in the incubator with 37° C., 5% CO2 content and saturation humidity for 72 h, kit for RNA extraction was used to extract intracellular RNA, one-step qRT-PCR was used to determine intracellular contents of HCV and GAPDH RNA, and the inhibition effects of drug on HCV infection was analyzed. […] In comparison with the virus control group, the inhibition effects on HCV infection upon action of different drugs were analyzed. […] This experiment was repeated for 3 times, * indicated […] in comparison with control, ** indicated p<0.01 in comparison with control.

[4] = tested on: Hsc70; test: Inhibition effects of compound on Hsc70 in Huh7.5 cultured cell (qRT-PCR, Western blotting); design: key to Hsc70 down-regulation rate (%): “—” represents no significant inhibition rate
Description: 2×10^5/ml Huh7.5 cells (purchased from Vertex Pharmaceutical Co., USA) were inoculated in an amount of 3 ml on 6-well culture plate, placed in an incubator with 37° C., 5% CO2 content, saturation humidity, and cultured for 24 h, added with different drug solutions (DM122) formulated with culture medium, and cell control was set. Cultivation was continuously performed in the incubator with 37° C., 5% CO2 content, saturation humidity for 24 h, a kit for RNA extraction was used to extract intracellular RNA from the cells, and one-step qRT-PCR was used to determine intracellular contents of Hsc70 and GAPDHRNA. After the cultivation of cells was performed for 48 h, the cells were digested and harvested, then the cells were split with CytoBuster™ Protein Extraction Buffer that contained many kinds of protease inhibitors, total intracellular proteins were extracted, and Western blotting was used to analyze the contents of Hsc70 and GAPDH proteins. In comparison with the cell control, the inhibition effects on Hsc70 upon action of different drugs were analyzed.

Row | Compound | CC50 (concentration to cause poisoning in half cells) [1] | Hsc70 inhibition rate (down-regulation of Hsc70 expression activity, expressed in relative OMT ratio) [2] | HCV inhibition rate (%) ([3]; 200 ug/ml (upper data)) | HCV inhibition rate (%) ([3]; 400 ug/ml (lower data)) | EC50 (half effective concentration) [3] | Hsc70 down-regulation rate (%) ([4]; 200 ug/ml (upper data)) | Hsc70 down-regulation rate (%) ([4]; 400 ug/ml (lower data)) | Hsc70 down-regulation rate (%) [2]
1 | O=C(O)CCCC1C2CCCN3CCCC(CN1Cc1ccc(F)cc1)C23 (stereo not drawn) [DM-132, N-(4-fluorobenzyl) matrinic acid] | 903.2 µg/mL (≈ 2410 µM) | 0.99 | 67.7 ± 5.8% | 82.7 ± 5.6% | 52.86 µg/mL (≈ 141 µM) | 80.1 ± 5.7% | 32.8 ± 26.8% | 
2 | Cc1ccccc1CN1CC2CCCN3CCCC(C1CCCC(=O)O)C23 (stereo not drawn) [DM-138, N-(2-methylbenzyl) matrinic acid] | 418.3 µg/mL (≈ 1130 µM) | 1.35 | 91.5 ± 7.4% | 95.1 ± 2.9% | 82.49 µg/mL (≈ 223 µM) | 34.8 ± 2.1% | 21.1 ± 12.0% | 
3 | COc1ccc(S(=O)(=O)N2CC3CCCN4CCCC(C34)C2CCCC(=O)O)cc1 (stereo not drawn) [DM-103, N-(4-methoxybenzenesulfonyl) matrinic acid] | >1000 µg/mL |  | 69.1 ± 14.5% | 91.4 ± 1.8% | 135.71 µg/mL (≈ 311 µM) | 74.8 ± 5.6% | — | 
4 | Cc1cccc(CN2CC3CCCN4CCCC(C2CCCC(=O)O)C34)c1 (stereo not drawn) [DM-139, N-(3-methylbenzyl) matrinic acid] | 885.1 µg/mL (≈ 2390 µM) | 1.39 | 88.5 ± 4.8% | 98.1 ± 1.0% | 98.65 µg/mL (≈ 266 µM) | 20.5 ± 24.8% | — | 
5 | O=C(O)CCCC1C2CCCN3CCCC(CN1Cc1cccc(F)c1)C23 (stereo not drawn) [DM-133, N-(3-fluorobenzyl) matrinic acid] | 527.8 µg/mL (≈ 1410 µM) | 0.81 | 96.4 ± 0.8% | 98.6 ± 0.8% | 67.33 µg/mL (≈ 180 µM) | — | — | 
6 | O=C(O)CCC[C@@H]1[C@H]2CCCN3CCC[C@@H](CN1Cc1ccc(OC(F)(F)F)cc1)[C@@H]23 [DM-162, N-(4-trifluoromethoxybenzyl) matrinic acid] | 431.6 µg/mL (≈ 980 µM) |  | 96.2 ± 0.3% | 99.1 ± 0.1% | 34.06 µg/mL (≈ 77.3 µM) | — | — | 
7 | O=C(O)CCCC1C2CCCN3CCCC(CN1Cc1ccc(Br)cc1)C23 (stereo not drawn) [DM-128, N-(4-bromobenzyl) matrinic acid] | 535.1 µg/mL (≈ 1230 µM) | −5.78 |  |  | 51.66 µg/mL (≈ 119 µM) |  |  | −5.78
8 | N#Cc1ccc(CN2C[C@@H]3CCCN4CCC[C@@H]([C@H]34)[C@H]2CCCC(=O)O)cc1 [DM-134, N-(4-cyanobenzyl) matrinic acid] | >1000 µg/mL | 0.57 |  |  | 52.18 µg/mL (≈ 137 µM) |  |  | 0.57
9 | O=C(O)CCCC1C2CCCN3CCCC(CN1Cc1cccc([N+](=O)[O-])c1)C23 (stereo not drawn) [DM-137, N-(3-nitrobenzyl) matrinic acid] | 471.59 µg/mL (≈ 1170 µM) | 1.31 | 99.8 ± 0.1% | 99.7 ± 0.0% | <12.34 µg/mL | — | — | 
10 | O=C(O)CCC[C@@H]1[C@H]2CCCN3CCC[C@@H](CN1Cc1ccc([N+](=O)[O-])cc1)[C@@H]23 [DM-123, N-(4-nitrobenzyl) matrinic acid] | 455.7 µg/mL (≈ 1130 µM) | −1.6 | 74.0 ± 7.8% | 81.1 ± 6.6% | 104.61 µg/mL (≈ 261 µM) | 65.9 ± 6.9% | 70.5 ± 2.3% | 
11 | O=C(O)CCC[C@@H]1[C@H]2CCCN3CCC[C@@H](CN1Cc1cscn1)[C@@H]23 [DM-146, N-(thiazol-4-yl)methyl matrinic acid] | >1000 µg/mL | 0.92 |  |  | 63.99 µg/mL (≈ 176 µM) |  |  | 0.92
12 | N-(4-ethenyl benzyl) matrinic acid [DM-136] | 70.49 µg/mL | 0.76 |  |  | 1.80 µg/mL |  |  | 0.76
13 | O=C(O)CCC[C@@H]1[C@H]2CCCN3CCC[C@@H](CN1Cc1ccc(Cl)c(Cl)c1)[C@@H]23 [DM-127, N-(3,4-dichlorobenzyl) matrinic acid] | 427.8 µg/mL (≈ 1010 µM) | −2.92 |  |  | 113.64 µg/mL (≈ 267 µM) |  |  | −2.92
14 | O=C(O)CCCC1C2CCCN3CCCC(CN1Cc1cccc(Cl)c1)C23 (stereo not drawn) [DM-125, N-(3-chlorobenzyl) matrinic acid] | >1000 µg/mL | <10 |  |  | 34.35 µg/mL (≈ 87.9 µM) |  |  | −67.97
15 | Cc1ccc(C(=O)N2CC3CCCN4CCCC(C34)C2CCCC(=O)O)cc1 [Compound L7, (5R)—N-(p-methylbenzoyl)matrinic acid] | >1000 µg/mL |  | 89.5 ± 2.0% | 95.7 ± 1.1% | 291.73 µg/mL (≈ 759 µM) | 63.3 ± 1.2% | — | 

From patent publication US20130190345A1, “MATRINIC ACID/MATRINE DERIVATIVES AND PREPARATION METHODS AND USES THEREOF” (priority 2010, published 2013)
